# From US8022075B2, “Diagnostic and remedy for disease caused by amyloid aggregation and/or deposition” (Fujifilm Ri Pharma Co., Ltd., priority 2005, dated 2011)
# Read-outs that look alike come from different tables or passages of the source.
# Legend:
# Amyloid β (1-40) peptide [1] = molecular target: T1, Amyloid β (1-40) peptide (Homo sapiens, UniProt P05067); experiment: Inhibitory activity on formation of amyloid from amyloid β protein (thioflavin T method); type: biochemical; details: amyloid β (1-40) 15 μmol/L, PBS(−), room temperature, one day; read-out: Aggregation inhibitory activity IC50 A β 1-40
# T1 construct: amyloid β (1-40) peptide hydrochloric acid salt; host or cells: chemically synthesised peptide
# Description: Amyloid β (1-40) peptide hydrochloric acid salt (product of PEPTIDE […], INC.) (15 μmol/L) and a test substance (1.6, 8, or 40 μmol/L) were incubated in PBS(−) at room temperature for one day. Thereafter, the amount of formed amyloid was measured through the thioflavin T method. […] As is clear from table 3, aggregation of amyloid β (1-40) can be prevented by the compound of the present invention.
# [2] = molecular target: T2, synthetic amyloid β (1-40) aggregates (Homo sapiens, UniProt P05067); experiment: Inhibition of binding of compound 23 to amyloid β protein aggregates; parameters: amyloid β (1-40) peptide hydrochloric acid salt; host or cells: chemically synthesised peptide; details: binding of 125I-labeled compound 23 to A β 1-40 aggregates, room temperature, three hours
# Description: Synthetic A β peptides in a solution form undergo spontaneous aggregation in a test tube, to thereby form aggregates having the same β-sheet structure as that of amyloid aggregates present in a brain suffering from Alzheimer's disease (hereinafter, such a brain is referred to as an “Alzheimer brain”).
# After ultrasonication, the mixture was gently stirred at 37° C. for four days, to thereby produce synthetic amyloid β (1-40) aggregates.
# Binding test was performed in the following manner. Firstly, PBS (500 μL) and 0.2% BSA/PBS solution (100 μL) were added to test tubes. […] Reaction was initiated by adding a synthetic amyloid β (1-40) aggregates solution (concentration: 500 nmol/L, adjusted by PBS) (200 μL) to each test tube.
# These samples were incubated at room temperature for three hours, and each reaction mixture was filtered by means of a cell harvester (M-24R, product of Brandel) by use of a Whatman GF/B filter (product of Whatman). The filter was washed thrice with ice-cooled PBS solution (about 2 mL) containing 0.1-mmol/L ascorbic acid.
# Activity values were calculated by means of a GraphPad Prism Ver.
# [3] = standard substances of liposolubility; values reported in the literature; cited from earlier work
# [4] = molecular target: T3, amyloid β (1-40) aggregates formed in PBS and in MES (Homo sapiens, UniProt P05067); experiment: Correlation of β sheet amount in aggregates to binding amount of compound 23; details: mixtures of PBS aggregates and MES aggregates (FIG. 4)
# T3 construct: amyloid β (1-40) peptide hydrochloric acid salt; host or cells: chemically synthesised peptide
# Excerpt: In order to confirm that binding of compound 23 is promoted in accordance with the β-sheet structure amount, binding amount was compared among amyloid β aggregates having different β-sheet contents.
# It has already reported by Wood et al. that amyloid β (1-40) aggregated in an acidic medium assumes large aggregates having a small β-sheet structure content, and that the structure is unchanged even in a neutral pH medium (Wood S. J., J. Mol. Biol. 256(5): 870-877). According to this report, synthetic amyloid β (1-40) aggregates were prepared in PBS in a manner similar to that of Test Example 2, and such aggregates were also prepared in MES (2-morpholinoethansulfonate) buffer in a similar manner.
# These samples were further diluted with PBS to 40 μmol/L. Also a PBS aggregates sample and a MES aggregates sample were diluted with PBS to 40 μmol/L respectively.
# The β-sheet content of aggregate mixture samples was determined through the thioflavin T method.
# The binding amount of compound 23 to an aggregate mixture (aggregates formed in PBS and those formed in MES) was determined in a manner similar to that of Test Example 5 (binding to amyloid).
# [5] = molecular target: Whole protein of human Alzheimer lesion origin (temporal cortex) (Homo sapiens, UniProt P05067); experiment: Calculation of binding affinity by use of Alzheimer brain; details: Alzheimer brain homogenate
# Description: Whole protein of human Alzheimer lesion origin (temporal cortex), a commercial product of Biochain (US), was employed.
# An Alzheimer brain homogenate diluted with PBS was added to each test tube, to thereby initiate reaction.
# 4.00 (GraphPad Software, Inc.), to thereby calculate binding parameters (Kd, Bmax).
# [6] = Distribution in rat body (radioactivity in the brain); type: in vivo, Wistar male rats; details: caudal vein
# Description: Wistar male rats (purchased from Japan SLC, Inc.) were conditioned for seven days, maintaining water and chow (commercial solid chow: F-2, product of Funabashi Farm) ad libitum, and the non-fasting rats were employed in the experiment (8-week-old at experiment).
# Each of compound 23, compound 24, and [^125I]-IMPY was dissolved in a solution containing 40 mM ascorbic acid and 0.1% Tween80, to thereby adjust the concentration to 100 μCi/200 μL. Each sample was administered to each rat through the caudal vein under non-anesthetization. […] The brain was cut into the left and right parts, and each part was weighed. The right brain was placed in a vial, and radioactivity was measured by means of a gamma counter. The radioactivity relative to the administration amount was calculated. Specifically, radioactivity of the tissue and that divided by the tissue weight were calculated as % I.D. and % I.D./g-tissue weight, respectively.
# [7] = In vitro metabolism rate by use of liver microsomes, mouse; type: in vitro ADME, Male CD1 mouse
# Description: (§1) Liver microsomes (Pooled human Liver Microsomes, Male CD1 mouse, Male Wistar Rat), which is a commercial product of In Vitro Technologies, were employed.
# (§2) Each of compound 23, compound 24, and [^125I]-IMPY was dissolved in Milli Q water, to thereby adjust the concentration to 11 μCi/mL (5 nmol/L).
# (§3) To a mixture of 100 mM glucose 6-phosphate and […] NADPH solution, an equal volume of […] magnesium chloride was added. Glucose 6-phosphate dehydrogenase was employed at a final concentration of 10 unit/mL. These components were reconstituted upon use.
# (§4) Method: To each of the glass test tubes, […] EDTA/0.33M potassium phosphate buffer (150 μL), Milli Q water (200 μL), 0.005 or 0.5 mg protein/mL microsome suspension (50 μL), and a test substance solution (50 μL) were added. The mixture was preliminarily incubated at 37° C. for two minutes. The above-prepared NADPH-generating system (50 μL) was added, to thereby initiate reaction. At an arbitrary point of time, an equal volume of acetonitrile was added, to thereby terminate the reaction. The reaction mixture (50 μL) was sampled into a glass tube for determining the metabolism amount, and saturated ascorbic acid ethanol solution (25 μL) was added thereto. The sample was developed by means of a reverse phase TLC (Whatman KC18F) with 80% methanol. The TLC was brought into contact with an imaging plate, and radioactivity was detected by means of BAS-1800 (product of Fuji Film Co., Ltd.). The metabolism rate was calculated through analysis by means of GraphPad Prism Ver. 4.00 (GraphPad Software, Inc.).
# [8] = In vitro metabolism rate by use of liver microsomes, rat; type: in vitro ADME, Male Wistar Rat
# Description: as §1, §2, §3, §4
# [9] = In vitro metabolism rate by use of liver microsomes, human; type: in vitro ADME
# Description: as §1, §2, §3, §4
# [10] = human, in vivo; cited from earlier work
# [11] = animal PET scanner; cited from earlier work
# [12] = molecular target: T2, synthetic amyloid β (1-40) aggregates; details: for Bonding amount against amyloid β protein aggregate concentration: presence and absence of normal rat brain homogenate
# Description: A brain tissue was removed from a normal rat, and a 5-fold amount of PBS was added to the tissue (wet state). A homogenate was produced from the mixture by use of a homogenizer. To test tubes, PBS (500 μL, in the presence of homogenate or 600 μL, in the absence of homogenate) was added. A rat brain homogenate (100 μL) was added under the presence condition of homogenate. […] Each (200 μL) of the Aβ aggregates solutions of twice-diluted series was added to each test tube, whereby reaction was initiated.
# By subtracting a non-specific binding amount from the total binding amount and dividing the difference by the non-specific binding amount, an SN (Signal/Noise) ratio was calculated. The relationship between the SN ratio and amyloid β protein aggregate concentration was investigated (FIG. 2).
# Amyloid β (1-40) peptide [13] = molecular target: T1, Amyloid β (1-40) peptide; experiment: Binding of compound 24 to amyloid β (1-40) aggregated in PBS or dissolved in purified water; details: for Specific binding radioactivity: amyloid β 50 nmol/L
# Description: Separately, amyloid β (1-40) peptide HCl salt was dissolved in purified water, to thereby prepare a 100-μmol/L amyloid β (1-40) solution. A CD spectrum of each sample solution (twice diluted) was measured at room temperature (about 25° C.) in a wavelength range of 190 to 250 nm. PBS or purified water was measured as a blank. After measurement, a blank value was subtracted from a CD value of each sample, to thereby correct the base line. From the thus-corrected CD values, secondary structure analysis was performed by means of SELCON3.
# Subsequently, binding ability of the compound of the invention to amyloid β (1-40) peptide dissolved in purified water or aggregated in PBS was determined in a manner similar to that employed in Test Example 3. However, a ^125I-labeled compound 24 was employed, and no rat bran homogenate was included. The employed amyloid β concentration was 50 nmol/L at reaction.
# [14] = read-out: Inhibitory activity (n = 3) IC50 Mean ± S.D.
# T2 sequence (P05067 672-711 limits assumed): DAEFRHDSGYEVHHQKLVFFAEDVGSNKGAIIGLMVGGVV
# T1 sequence (P05067 672-711 limits assumed): as above
# Chain of Whole protein of human Alzheimer lesion origin (temporal cortex) (P05067 672-713): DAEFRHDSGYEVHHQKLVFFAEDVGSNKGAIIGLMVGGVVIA
# T3 sequence (P05067 672-711 limits assumed): as the sequence (P05067 672-711 limits assumed) above
compound,measurement,setting,value
"5-[4-(6-Iodoimidazo[1,2-a]pyridin-2-yl)phenyl]-1,3-oxazole [Example 1]",IC50,Amyloid β (1-40) peptide [1],29400 nM
same,IC50,[2]; [14],1.23 ± 0.0842 nM
CC(=O)Nc1ccc(O)cc1 [Acetaminophen],LogD7.4,[3],0.51
Oc1ncnc2[nH]ncc12 [Allopurinol],LogD7.4,[3],−0.44
c1ccc(-c2ccc(C(c3ccccc3)n3ccnc3)cc2)cc1 (stereo not drawn) [Bifonazole],LogD7.4,[3],4.77
CN/C(=N/CCSCc1nc[nH]c1C)NC#N [Cimetidine],LogD7.4,[3],0.35
Clc1cccc(Cl)c1N=C1NCCN1 [Clonidine],LogD7.4,[3],0.62
"Nc1c(/N=N/c2ccc(-c3ccc(/N=N/c4cc(S(=O)(=O)O)c5ccccc5c4N)cc3)cc2)cc(S(=O)(=O)O)c2ccccc12 [Congo Red, reference compound]",IC50,[2],> 5000 nM
"Ic1ccc2nc(-c3ccc(-c4cc[nH]n4)cc3)cn2c1 [Example 3, 6-Iodo-2-[4-(1H-3-pyrazolyl)phenyl]imidazo[1,2-a]pyridine]",IC50,Amyloid β (1-40) peptide [1],22300 nM
same,IC50,[2],9.72 ± 1.44 nM
"[125I]c1ccc2nc(-c3ccc(-c4cnco4)cc3)cn2c1 [Example 23, [^125I]5-[4-(6-Iodoimidazo[1,2-a]pyridin-2-yl)phenyl]-1,3-oxazole]",Specific binding amount against β-sheet content of aggregate mixture,[4],promoted in accordance with an increase in β-sheet content
same,Bmax,[5],1.66 pmol/mg protein
same,Radioactivity in the rat brain Mean ± SD,[6]; 2 min after administration,1.268 ± 0.166 % I.D./g
same,Radioactivity in the rat brain Mean ± SD,[6]; 5 min after administration,1.124 ± 0.032 % I.D./g
same,Radioactivity in the rat brain Mean ± SD,[6]; 15 min after administration,0.584 ± 0.077 % I.D./g
same,Radioactivity in the rat brain Mean ± SD,[6]; 30 min after administration,0.273 ± 0.015 % I.D./g
same,Radioactivity in the rat brain Mean ± SD,[6]; 60 min after administration,0.139 ± 0.006 % I.D./g
same,Radioactivity in the rat brain Mean ± SD,[6]; 120 min after administration,0.083 ± 0.002 % I.D./g
same,Rate of metabolism by liver microsomes,[7],0.480 ± 0.139 pmol/min/mg protein
same,Rate of metabolism by liver microsomes,[8],0.632 ± 0.420 pmol/min/mg protein
same,Rate of metabolism by liver microsomes,[9],0.944 ± 0.265 pmol/min/mg protein
"CC(=C(C#N)C#N)c1ccc2cc(N(C)CCF)ccc2c1 [FDDNP, reference compound]",IC50,[2]; [14],1050 ± 48.8 nM
C[C@]12CC[C@H]3[C@@H](CCC4=CC(=O)CC[C@@]43C)[C@@H]1CC[C@@H]2O [Teststeron],LogD7.4,[3],3.29
[11CH3]Nc1ccc(-c2nc3ccc(O)cc3s2)cc1 [^11C-PIB],Difference in retention between AD patient groups,[10],at most about two-fold
same,"Retention time, PS1/APP mice against normal mice",[11],no difference is observed in retention time
"CN(C)c1ccc(-c2cn3cc([123I])ccc3n2)cc1 [^123I-IMPY, [^123I]6-iodo-2-(4′-dimethylamino-)phenyl-imidazo[1,2-a]pyridine, reference compound]",Bonding amount against amyloid β protein aggregate concentration,[12],increase in bonding amount in response to the amyloid β protein aggregate concentration
"[123I]c1ccc2nc(-c3ccc(-c4cc[nH]n4)cc3)cn2c1 [^123I-labeled product of compound 3, [^123I]6-Iodo-2-[4-(1H-3-pyrazolyl)phenyl]imidazo[1,2-a]pyridine]",SN (Signal/Noise) ratio,"[12]; compared with 123I-IMPY, presence and absence of normal rat brain homogenate (FIG. 2)",higher SN ratio
same,Bonding amount against amyloid β protein aggregate concentration,[12],increase in bonding amount in response to the amyloid β protein aggregate concentration
"[^125I]6-Iodo-2-[4-(1H-3-pyrazolyl)phenyl]imidazo[1,2-a]pyridine [Example 24]",Specific binding radioactivity,Amyloid β (1-40) peptide [13]; Solution of amyloid β (1-40) dissolved in purified water,6300.3 cpm
same,Specific binding radioactivity,Amyloid β (1-40) peptide [13]; Suspension of amyloid β (1-40) aggregated in PBS,125504.4 cpm
same,Specific binding to aggregates (suspension) relative to dissolved amyloid β (1-40) (solution),Amyloid β (1-40) peptide [13]; ratio suspension in PBS / solution in purified water,about 20 times
same,Bmax,[5],1.59 pmol/mg protein
same,Kd,[5]; 125I-labeled test compound 0.5 nmol/L,4.05 nM
same,Radioactivity in the rat brain Mean ± SD,[6]; 2 min after administration,0.760 ± 0.036 % I.D./g
same,Radioactivity in the rat brain Mean ± SD,[6]; 5 min after administration,0.656 ± 0.026 % I.D./g
same,Radioactivity in the rat brain Mean ± SD,[6]; 15 min after administration,0.373 ± 0.047 % I.D./g
same,Radioactivity in the rat brain Mean ± SD,[6]; 30 min after administration,0.176 ± 0.009 % I.D./g
same,Radioactivity in the rat brain Mean ± SD,[6]; 60 min after administration,0.053 ± 0.003 % I.D./g
same,Radioactivity in the rat brain Mean ± SD,[6]; 120 min after administration,0.015 ± 0.002 % I.D./g
same,Rate of metabolism by liver microsomes,[7],0.229 ± 0.061 pmol/min/mg protein
same,Rate of metabolism by liver microsomes,[8],0.193 ± 0.058 pmol/min/mg protein
same,Rate of metabolism by liver microsomes,[9],0.140 ± 0.057 pmol/min/mg protein
